Laboratory results as given in patent US20250034135A1, “ANTI-APOPTOTIC PROTEIN BCL-2 INHIBITOR, PHARMACEUTICAL COMPOSITION AND USES THEREOF” (HANGZHOU HEALZEN THERAPEUTICS CO., LTD., priority 2021, published 2025).
Like-named read-outs stand apart in the source and are kept apart here.

What was measured:
[1] = molecular target: BCL2 (Homo sapiens (Human), UniProt P10415); experiment: Molecular level activity test of anti-apoptotic protein BCL2 (HTRF, binding to Bim peptide); conditions: HTRF, binding of BCL2 to Bim peptide; read-out: BCL2 nM (inhibitory activity, IC50)
Outline: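 HTRF binding of His-tagged recombinant BCL2 to biotin-tagged Bim peptide, compound in 2% DMSO. After 1 h reaction, anti-His and streptavidin-XL665 detection reagents were added and incubated 4 h at room temperature before reading.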

[2] = molecular target: BCL2 (G101V) (Homo sapiens (Human), UniProt P10415, G101V); experiment: Molecular level activity test of anti-apoptotic protein BCL2 (G101V) (HTRF, binding to Bim peptide); conditions: inhibition of BCL2 (G101V) binding to Bim peptide, read-out: BCL-2 (G101V)
Outline: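 His-tagged recombinant BCL2 (G101V) incubated 1 h with biotin-BIM peptide and compound (2% DMSO), then anti-His and streptavidin-XL665 detection reagents added for 4 h at room temperature. HTRF signal reflects compound effect on BCL2–BIM binding.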

[3] = molecular target: BCL2 (D103Y) (Homo sapiens (Human), UniProt P10415, D103Y); experiment: Molecular level activity test of BCL2 (D103Y) (HTRF, binding to Bim peptide); conditions: read-out: BCL-2 (D103Y) (nM) (inhibitory activity, IC50)
Outline: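 His-tagged recombinant protein mixed with biotinylated BIM peptide and compound (2% DMSO), reacted 1 h. Anti-His and streptavidin-XL665 detection reagents then added and incubated 4 h at room temperature before HTRF read-out of binding inhibition.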

[4] = test system: RS4; 11 cells; experiment: Tumor proliferation inhibitory activity test (MTS) on RS4; 11; format: cell-based; conditions: Homo sapiens, RS4-11, 72 h, 3 days incubation
Outline: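 RS4;11 cells were exposed to serially diluted compound (0.2% DMSO control) for 3 days at 37 °C/5% CO2, followed by MTS for 3–4 h. Read-out was OD490−OD690, and inhibition was calculated relative to the DMSO and blank wells.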

[5] = molecular target: BCL-XL (Homo sapiens (Human), UniProt Q07817); experiment: BCL-XL enzyme molecular level activity test (HTRF, binding to BIM peptide); conditions: binding of BCL-XL to BIM peptide, read-out: BCL-XL inhibitory activity (IC50)
Outline: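 HTRF binding assay: His-tagged recombinant BCL-XL with biotin-BIM peptide and compound (2% DMSO), 1 h. Anti-His and streptavidin-XL665 detection reagents added, 4 h at room temperature. Excitation 320 nm; 665/615 nm ratio reflects binding, with no-protein background and no-compound full-binding controls.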

[6] = test system: human platelets; experiment: Platelet viability test (CTG); format: cell-based; conditions: CTG after 24 h
Protocol: After 10 mL of platelet-rich plasma was added to 30 mL of ACD-A solution and uniformly mixed, centrifugation was performed at 1200 g, and the supernatant was discarded; 10 mL of ACD-A solution was added, resuspended, uniformly mixed, and centrifuged at 1200 g for 10 min, and the supernatant was discarded. 5 mL of HEPES-Tyrode's buffer containing 1 μM PGE1 and 0.2 U/mL apyrase was added, slightly inverted, and then centrifuged at 800 g for 5 min, and the supernatant was discarded. 10 mL of HEPES-Tyrode's buffer containing 1 μM PGE1 and 0.2 U/mL apyrase was added, resuspended, and centrifuged at 1000 g for 5 min, and the supernatant was discarded. 2 mL of HEPES-Tyrode's buffer containing 1 μM PGE1+10% FBS-resuspended platelets was added, 200 μL was taken into a centrifuge tube and diluted to 2 mL. Then it was diluted to 1, 0.8, 0.6, 0.4, 0.2, 0.1, 0.08, 0.06, 0.04, 0.02, 0.01 times, the volume was complemented to 100 μL, and 50 μL of CTG reagent was added to detect cell viability. The maximum valid dilution with a fluorescence value not exceeding […] was selected for dilution, 90 μL/well was connected to a 96-well cell plate for chemiluminescence detection. A compound was prepared with HEPES-Tyrode's buffer containing 1 μM of PGE1+10% FBS, and added to the cells, which was gently beaten evenly and detected for cell viability by adding 50 μL CTG after 24 h.

[7] = molecular target: human CYP3A4 enzyme (Homo sapiens (Human), UniProt P08684); experiment: CYP3A4 enzyme inhibitory activity (Vivid CYP3A4 Green screening kit)
Protocol: The inhibitory activity of compounds on human CYP3A4 enzyme was detected using a VIVID™ CYP3A4 GREEN SCRNING KIT reagent kit. The Vivid™ CYP450 screening kit includes a Vivid™ substrate, Vivid™ fluorescence standard, reaction buffer, Vivid™ regeneration system, NADP+ and CYP450 BACULOSOMES™ Plus reagent. Operations were performed following the instructions, and a blank control group was set up without adding any compounds.
The IC50 value of the compounds inhibiting human CYP3A4 enzyme was calculated using Graphpad Prism 7.00 software through the formula Y=100/(1+10^((Log IC50−X)*HillSlope)).

[8] = read-out: CYP3A4 (IC50), Vivid CYP3A4 Green screening kit

human CYP3A4 enzyme, sequence (P08684 whole entry): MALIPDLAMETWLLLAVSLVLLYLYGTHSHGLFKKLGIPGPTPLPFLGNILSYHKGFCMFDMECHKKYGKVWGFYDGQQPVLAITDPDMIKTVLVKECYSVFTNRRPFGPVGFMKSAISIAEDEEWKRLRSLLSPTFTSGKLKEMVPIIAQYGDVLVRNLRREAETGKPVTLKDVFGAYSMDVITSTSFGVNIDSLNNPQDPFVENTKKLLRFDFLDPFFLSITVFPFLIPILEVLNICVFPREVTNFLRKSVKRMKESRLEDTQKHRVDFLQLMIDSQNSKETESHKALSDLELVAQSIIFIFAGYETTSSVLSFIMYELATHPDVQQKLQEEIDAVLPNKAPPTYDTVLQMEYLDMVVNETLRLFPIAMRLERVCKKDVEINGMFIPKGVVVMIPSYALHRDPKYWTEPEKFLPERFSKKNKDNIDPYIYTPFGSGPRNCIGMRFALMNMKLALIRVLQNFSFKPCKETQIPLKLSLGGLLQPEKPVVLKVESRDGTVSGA
BCL-XL, sequence (Q07817 whole entry): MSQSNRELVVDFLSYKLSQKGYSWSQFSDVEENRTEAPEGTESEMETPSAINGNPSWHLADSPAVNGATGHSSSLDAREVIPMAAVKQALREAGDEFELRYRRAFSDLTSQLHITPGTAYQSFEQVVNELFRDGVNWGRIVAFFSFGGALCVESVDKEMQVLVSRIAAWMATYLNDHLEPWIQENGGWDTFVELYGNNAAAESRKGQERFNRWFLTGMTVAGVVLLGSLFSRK

| SMILES | IC50 [1] [nM] | IC50 [2] [nM] | IC50 [3] [nM] | IC50 [4] [nM] | IC50 ([5]; values given in μM) [µM] | IC50 [6] [nM] | IC50 [7, 8] [nM] | IC50 ([5]; values in nM) [µM] | IC50 [7] [nM] |
| --- | --- | --- | --- | --- | --- | --- | --- | --- | --- |
| CC(C)c1ccccc1[C@@H]1CN(Cc2cnn(C)c2)CCN1C1CC2(CCN(c3cc(Oc4cnc5[nH]ccc5c4)c(C(=O)NS(=O)(=O)c4ccc(NCC5(F)CCOCC5)c([N+](=O)[O-])c4)cc3F)CC2)C1 [compound 209, (R)-2-((1H-pyrrolo[2,3-b]pyrid-5-yl)oxy)-5-fluoro-N-((4-(((4-fluorotetrahydro-2H-pyran-4-yl)methyl)amino)-3-nitrophenyl)sulfonyl)-4-(2-(2-(2-isopropylphenyl)-4-((1-methyl-1H-pyrazole-4-yl)methyl)piperazin-1-yl)-7-azaspiro[3.5]non-7-yl)benzamide] | < 10 | < 10 | < 10 | < 0.5 | 1.9 | > 5000 | > 20000 |  |  |
| COc1ccc(CN2CCN(C3CC4(CCN(c5cc(Oc6cnc7[nH]ccc7c6)c(C(=O)NS(=O)(=O)c6ccc(NC[C@H]7COCCO7)c([N+](=O)[O-])c6)cc5F)CC4)C3)[C@H](c3ccccc3C(C)C)C2)cc1 [compound 241, N-((4-((((S)-1,4-dioxan-2-yl)methyl)amino)-3-nitrophenyl)sulfonyl)-2-((1H-pyrrolo[2,3-b]pyrid-5-yl)oxy)-5-fluoro-4-(2-((R)-2-(2-isopropylphenyl)-4-(4-methoxybenzyl)piperazin-1-yl)-7-azaspiro[3.5]non-7-yl)benzamide] | < 10 | < 10 | < 10 | < 0.5 |  | > 5000 |  | > 0.5 |  |
| COc1ccc(CN2CCN(C3CC4(CCN(c5cc(Oc6cnc7[nH]ccc7c6)c(C(=O)NS(=O)(=O)c6ccc(NCC7(F)CCOCC7)c([N+](=O)[O-])c6)cc5F)CC4)C3)[C@H](c3ccccc3C(C)C)C2)cc1OC [compound 197, (R)-2-((1H-pyrrolo[2,3-b]pyrid-5-yl)oxy)-4-(2-(4-(3,4-dimethoxybenzyl)-2-(2-isopropylphenyl)piperazin-1-yl)-7-azaspiro[3.5]non-7-yl)-5-fluoro-N-((4-(((4-fluorotetrahydro-2H-pyran-4-yl)methyl)amino)-3-nitrophenyl)sulfonyl)benzamide] | < 10 | < 10 | < 10 | < 0.5 | > 1 | > 5000 | > 20000 |  |  |
| COc1ccc(CN2CCN(C3CC4(CCN(c5cc(Oc6cnc7[nH]cc(F)c7c6)c(C(=O)NS(=O)(=O)c6ccc(NCC7(F)CCOCC7)c([N+](=O)[O-])c6)cc5F)CC4)C3)[C@H](c3ccccc3C(C)C)C2)cc1 [compound 252, (R)-5-fluoro-2-((3-fluoro-1H-pyrrolo[2,3-b]pyrid-5-yl)oxy)-N-((4-(((4-fluorotetrahydro-2H-pyran-4-yl)methyl)amino)-3-nitrophenyl)sulfonyl)-4-(2-(2-(2-isopropylphenyl)-4-(4-methoxybenzyl)piperazin-1-yl)-7-azaspiro[3.5]non-7-yl)benzamide] | < 10 | < 10 | < 10 | 0.5 to 1 |  | > 5000 |  | > 0.5 |  |
| COc1cc(CN2CCN(C3CC4(CCN(c5cc(Oc6cnc7[nH]ccc7c6)c(C(=O)NS(=O)(=O)c6ccc(NCC7(F)CCOCC7)c([N+](=O)[O-])c6)cc5F)CC4)C3)[C@H](c3ccccc3C(C)C)C2)ccc1CN(C)C [compound 247, (R)-2-((1H-pyrrolo[2,3-b]pyrid-5-yl)oxy)-4-(2-(4-(4-((dimethylamino)methyl)-3-methoxybenzyl)-2-(2-isopropylphenyl)piperazin-1-yl)-7-azaspiro[3.5]non-7-yl)-5-fluoro-N-((4-(((4-fluorotetrahydro-2H-pyran-4-yl)methyl)amino)-3-nitrophenyl)sulfonyl)benzamide] | < 10 | < 10 | < 10 | 0.5 to 1 |  | > 5000 |  | > 0.5 |  |
| COc1ccc(CN2CCN(C3CC4(CCN(c5cc(Oc6cnc7[nH]ccc7c6)c(C(=O)NS(=O)(=O)c6ccc(NCC7(F)CCOCC7)c([N+](=O)[O-])c6)cc5F)CC4)C3)[C@H](c3ccccc3C(C)C)C2)cn1 [compound 242, (R)-2-((1H-pyrrolo[2,3-b]pyrid-5-yl)oxy)-5-fluoro-N-((4-(((4-fluorotetrahydro-2H-pyran-4-yl)methyl)amino)-3-nitrophenyl)sulfonyl)-4-(2-(2-(2-isopropylphenyl)-4-((6-methoxypyrid-3-yl)methyl)piperazin-1-yl)-7-azaspiro[3.5]non-7-yl)benzamide] | < 10 | < 10 | < 10 | < 0.5 |  | > 5000 | > 20000 | > 0.5 |  |
| CC(C)c1ccccc1[C@@H]1CN(Cc2ccc(F)c(F)c2)CCN1C1CC2(CCN(c3cc(Oc4cnc5[nH]ccc5c4)c(C(=O)NS(=O)(=O)c4ccc(NCC5(F)CCOCC5)c([N+](=O)[O-])c4)cc3F)CC2)C1 [compound 190, (R)-2-((1H-pyrrolo[2,3-b]pyrid-5-yl)oxy)-4-(2-(4-(3,4-difluorobenzyl)-2-(2-isopropylphenyl)piperazin-1-yl)-7-azaspiro[3.5]non-7-yl)-5-fluoro-N-((4-(((4-fluorotetrahydro-2H-pyran-4-yl)methyl)amino)-3-nitrophenyl)sulfonyl)benzamide] |  | < 10 | < 10 | < 0.5 |  | > 5000 |  | > 0.5 | > 20000 |
| COc1ccc(CN2CCN(C3CC4(CCN(c5cc(Oc6cnc7[nH]ccc7c6)c(C(=O)NS(=O)(=O)c6ccc(NCC7CCOCC7)c([N+](=O)[O-])c6)cc5F)CC4)C3)[C@H](c3ccccc3C(C)C)C2)cc1 [compound 239, (R)-2-((1H-pyrrolo[2,3-b]pyrid-5-yl)oxy)-5-fluoro-4-(2-(2-(2-isopropylphenyl)-4-(4-methoxybenzyl)piperazin-1-yl)-7-azaspiro[3.5]non-7-yl)-N-((3-nitro-4-(((tetrahydro-2H-pyran-4-yl)methyl)amino)phenyl)sulfonyl)benzamide] | < 10 | < 10 |  | < 0.5 |  | > 5000 | > 20000 | > 0.5 |  |
